Results taken from patent publication US11452709B2, “Compositions and methods for preventing and treating radiation-induced bystander effects caused by radiation or radiotherapy” (The Regents of the University of Colorado, priority 2017, dated 2022).
Positions count from the first letter of the chain named. In names and notes the source's numbering stands. Where two headings read alike, the source gives them in different places.

Assays:
[1] = test system: Phsp-4::gfp stress-response reporter; test: Phsp-4::gfp stress response assay in unexposed posterior region after localized UV irradiation (LUI); type: in vivo, C. elegans; settings: zcls4 L1 larvae treated with 1 mM compound for 48 h (FIG. 17)
CTSB protease = target: T1, CTSB protease (Homo sapiens, UniProt P07858); test: CTSB protease activity inhibition in vitro (z-Arg-Arg-AMC substrate); type: biochemical; settings: for Inhibition rate (%) of the CTSB protease activity / inhibition at 1000 µM: 1 mM of each compound; for inhibition at 1000 µM: read-out: Inhibition rate (%) of the CTSB protease activity
T1 construct: purchased Sino Biological Inc. 10483-H08H-10

[2] = target: T2, C. elegans CPR-4 protease (Caenorhabditis elegans, UniProt P43508); test: CPR-4 protease activity inhibition in vitro (z-Arg-Arg-AMC substrate); type: biochemical; settings: 1 mM of each compound; read-out: Inhibition rate(%) of the C. elegans CPR-4 protease activity
T2 construct: a cpr-4 cDNA fragment encoding residues 16-336 was PCR amplified from the full-length cpr-4 cDNA clone; GST (N, cleaved yes); made in house; host or cells: Escherichia coli BL21(DE3)
T2 sequence (P43508 81-335): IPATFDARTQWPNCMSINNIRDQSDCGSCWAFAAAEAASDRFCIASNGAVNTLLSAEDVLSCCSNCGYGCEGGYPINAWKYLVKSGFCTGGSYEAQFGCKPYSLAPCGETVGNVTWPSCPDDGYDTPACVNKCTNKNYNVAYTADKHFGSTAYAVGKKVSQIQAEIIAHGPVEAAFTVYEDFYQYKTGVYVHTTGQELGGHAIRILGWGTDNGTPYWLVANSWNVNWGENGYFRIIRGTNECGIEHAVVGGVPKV

[3] = test system: germline mitotic zone nuclei; test: Germ cell proliferation assay (mitotic nuclei); type: in vivo, C. elegans; settings: 2.8 μM tCPR-4, 48 hours
Protocol: Growing C. elegans animals in 96-well plates. HB101 bacteria were mixed with 100 μL conditioned medium (0.1 μg/μL) or 100 μL S-Medium containing 2.8 μM of recombinant tCPR-4 proteins (wild-type or mutant) or 0.27 μM recombinant human cathepsin B in a 96-well plate. Approximately 60 L4 larvae were transferred into each well of the plate. After being cultured in liquid media for 48 hours, these animals were scored for the numbers of germ cell corpses and mitotic nuclei. Quantification of mitotic nuclei. L4 animals treated with 2.8 μM of purified tCPR-4 proteins in liquid culture for 48 hours were transferred to NGM plates and allowed to recover for 1 hour at 20° C. They were then dissected to expose their gonads following the protocol described previously. Dissected gonads were fixed and stained with DAPI. The number of germ nuclei and the number of metaphase nuclei in the mitotic zone of each gonad were scored using a Zeiss Nomarski microscope with a DAPI filter.

N2 animals = test: Embryonic lethality assay in liquid media with purified proteins; type: in vivo, C. elegans; settings: 2.8 μM tCPR-4 proteins or 0.27 μM rhCTSB, 48 hours
Protocol: Embryonic lethality and larval arrest assays. For embryonic lethality assays caused by direct irradiation, after irradiated with 100 J/m^2 UV or 500 Gy gamma ray, gravid adults were placed on NGM plates to lay eggs for 4 hours at 25° C. and then removed from the plates. For embryonic lethality assays in liquid media, L4 larvae were cultured in conditioned medium or S-Medium containing the purified proteins at 20° C. for 48 hours, transferred to fresh NGM plates from the liquid media, and allowed to lay eggs for 4 hours at 25° C., before the adult animals were removed. For embryonic lethality assays in transgenic animals expressing CPR-4 in the pharynx, transgenic gravid adults at 24 hours post L4 were placed on NGM plates to lay eggs for 4 hours at 25° C. and then removed from the plates.

[4] = test system: germ cell corpses in ced-1(e1735) animals; test: Germ cell corpse assay with recombinant proteins in liquid culture; type: in vivo, C. elegans; settings: for Germ cell corpses in ced-1(e1735) animals: 2.8 μM tCPR-4 proteins or 0.27 μM rhCTSB, L4 larvae, 48 hours
Protocol: Growing C. elegans animals in 96-well plates. HB101 bacteria were mixed with 100 μL conditioned medium (0.1 μg/μL) or 100 μL S-Medium containing 2.8 μM of recombinant tCPR-4 proteins (wild-type or mutant) or 0.27 μM recombinant human cathepsin B in a 96-well plate. Approximately 60 L4 larvae were transferred into each well of the plate. After being cultured in liquid media for 48 hours, these animals were scored for the numbers of germ cell corpses and mitotic nuclei. Quantification of germ cell corpses. L4 animals were cultured in liquid media in a 96-well plate as described above. After 48 hours, they were transferred to NGM plates and allowed to recover for 1 hour at 20° C. The animals were then anesthetized by 20 mM NaN3, mounted onto 2% agar pad, and scored under Nomarski optics. For transgenic animals expressing CPR-4 in the pharynx, L4 animals were grown on NGM plates for 24 hours at 20° C. before they were scored for germ cell corpses. Only the posterior arms of intact gonads were scored. Blind tests were carried out in all germ cell corpse quantification experiments.

[5] = Protease activity of recombinant proteins in vitro; type: biochemical; settings: 2.8 μM tCPR-4 proteins, 0.27 μM rhCTSB; z-Arg-Arg-AMC
Protocol: Measurement of protease activity in vitro. The CPR-4 enzymatic assays were performed following the method described previously with some modifications. The cathepsin B-specific fluorogenic substrate, Z-Arg-Arg-7-amido-4-methylcoumarin hydrochloride (z-Arg-Arg-AMC; Peptanova, catalog number 88937-61-5), was dissolved in 2×reaction buffer, containing 25 mM Tris-HCl (pH 8.0), 100 mM NaCl, 10% (v/v) Glycerol, 0.8 mM Sodium Acetate (pH6.0), and 8 mM EDTA. For the assays, 10 μL of proteins (100 ng/μL) or 10 μL of conditioned medium (100 ng/μL) were incubated with 10 μL of 20 μM z-Arg-Arg-AMC at 25° C. for 10 minutes before measuring the […]. Enzymatic activities were determined as the mean velocities at 25° C. in a dual luminescence fluorometer EnVision (Perkin-Elmer) at an excitation wavelength of 380 nm and an emission wavelength of 460 nm, and expressed as relative intensity in kilo relative fluorescence unit (kRFU). Recombinant human cathepsin B (rhCTSB; Sino Biological Inc., catalog number 10483-H08H-10) was dissolved in a buffer recommended by the manufacturer [25 mM Tris-HCl (pH 8.0), 100 mM NaCl, 10% (v/v) glycerol, 5 mM DTT, and 0.1% Triton-X]. The buffer control unique to the CPR-4 proteins or the rhCTSB protein, or the sham-irradiated conditioned medium, was also measured using the same procedures. S-Medium was used in each experiment as the background control.

[6] = read-out: IC50 in inhibiting the CTSB protease activity
[7] = read-out: IC50 in inhibiting CTSB

## CCCNC(=O)[C@H]1O[C@@H]1C(=O)N[C@H](C(=O)N1CCC[C@H]1C(=O)O)[C@@H](C)CC (relative stereo) [CA074, N-(1-3-trans-propylcarbamoyloxirane-2-carbonyl)-1-isoleucyl-1-proline, reference compound]
[1]
  Bystander Phsp-4::gfp response in posterior unexposed regions after LUI at the head: abolished the bystander Phsp-4::gfp response
CTSB protease
  Inhibition rate (%) of the CTSB protease activity: best inhibitory effects
  inhibition at 1000 µM: 91.8%

## O=c1cc(-c2ccc(O)cc2)oc2cc(O)cc(O)c12 [Apigenin, 5,7-Dihydroxy-2-(4-hydroxyphenyl)-4H-1-benzopyran-4-one]
CTSB protease
  Inhibition rate (%) of the CTSB protease activity: 70.93%
  inhibition at 1000 µM: 65 to 85%

## O=c1cc(-c2ccccc2)oc2cc(O)c(O)c(O)c12 [Baicalein, 5,6,7-Trihydroxy-2-phenyl-chromen-4-one]
[2]
  inhibition at 1000 µM: 41.5%
CTSB protease
  inhibition at 1000 µM: 65 to 85%
CTSB protease; [6]
  IC50: 870 nM

## CCCNC(=O)[C@H]1O[C@@H]1C(=O)N[C@H](C(=O)N1CCC[C@H]1C(=O)OC)[C@@H](C)CC [CA074Me, CA074 methyl ester, reference compound]
[1]
  Bystander Phsp-4::gfp response in posterior unexposed regions after LUI at the head: abolished the bystander Phsp-4::gfp response
CTSB protease
  Inhibition rate (%) of the CTSB protease activity: best inhibitory effects
  inhibition at 1000 µM: 88.1%
CTSB protease; [7]
  IC50: ≤ 20 nM
CTSB protease; [6]
  IC50: < 10 nM

## CC(C)C[C@H](NC(=O)[C@@H]1O[C@H]1C(=O)O)C(=O)NCCCCNC(=N)N [E64, N—[N-(L-3-Trans-carboxirane-2-carbonyl)-L-leucyl]-agmatine, reference compound]
[2]
  inhibition at 1000 µM: 89.6%
CTSB protease
  inhibition at 1000 µM: 92.1%
CTSB protease; [7]
  IC50: ≤ 20 nM
CTSB protease; [6]
  IC50: 20 nM

## Nc1nc2ncc(CNc3ccc(C(=O)N[C@@H](CCC(=O)O)C(=O)O)cc3)nc2c(=O)[nH]1 [Folic acid]
CTSB protease
  Enhancement of the activity of the CTSB protease: more than 4 folds
CTSB protease; read-out: EC50 (activation of the CTSB protease)
  EC50: 1260 nM

## O=c1c(O[C@@H]2O[C@H](CO)[C@@H](O)[C@H](O)[C@H]2O)c(-c2ccc(O)c(O)c2)oc2cc(O)cc(O)c12 [Isoquercitrin, 2-(3,4-Dihydroxyphenyl)-5,7-dihydroxy-3-[(2S,3R,4S,5S,6R)-3,4,5-trihydroxy-6-(hydroxymethyl)oxan-2-yl]oxychromen-4-one]
CTSB protease
  Inhibition of the activity of CTSB (in words): inhibit the activity of CTSB
  Inhibition rate (%) of the CTSB protease activity: 68.98%
  inhibition at 1000 µM: 65 to 85%

## O=c1c(O)c(-c2ccc(O)c(O)c2)oc2cc(O)cc(O)c12 [Quercetin, 2-(3,4-dihydroxyphenyl)-3,5,7-trihydroxy-4H-chromen-4-one]
[2]
  inhibition at 1000 µM: 80.7%
CTSB protease
  Inhibition of the activity of CTSB (in words): inhibit the activity of CTSB
  Inhibition rate (%) of the CTSB protease activity: 82.42%
  inhibition at 1000 µM: 65 to 85%
CTSB protease; [6]
  IC50: 1870 nM

## O=C(OC[C@H]1O[C@@H](OC(=O)c2cc(O)c(O)c(OC(=O)c3cc(O)c(O)c(O)c3)c2)[C@H](OC(=O)c2cc(O)c(O)c(OC(=O)c3cc(O)c(O)c(O)c3)c2)[C@@H](OC(=O)c2cc(O)c(O)c(OC(=O)c3cc(O)c(O)c(O)c3)c2)[C@@H]1OC(=O)c1cc(O)c(O)c(OC(=O)c2cc(O)c(O)c(O)c2)c1)c1cc(O)c(O)c(OC(=O)c2cc(O)c(O)c(O)c2)c1 [Tannic acid]
CTSB protease
  inhibition at 1000 µM: 69.3%

## NH2-Arg-Leu-Ala-COOH—Se
CTSB protease
  Inhibition rate (%) of the CTSB protease activity: 86.93%

B1: tCPR-4: recombinant truncated CPR-4 lacking its signal peptide (residues 1-15) (protein, UniProt P43508 81-335, looked up)
Cathepsin B-like cysteine …: T2 sequence (P43508 81-335)
[3]
  Germ cell nuclei and metaphase nuclei in the mitotic zone of N2 animals: more germ cell nuclei and more metaphase nuclei in the mitotic zone
N2 animals
  Embryonic lethality of treated N2 animals: increased embryonic lethality
[4]; 2.8 μM tCPR-4, 48 hours
  Germ cell death in ced-1(e1735); daf2(e1370) mutant: did not further reduce germ cell death
  Germ cell death in ced-1(e1735); pdk-1(sa680) animals: did not reduce germ cell death
[4]
  Germ cell corpses in ced-1(e1735) animals: reduced germ cell corpses

B2: tCPR-4(H281A) (protein, UniProt P43508 81-335, looked up, variant H281A)
Cathepsin B-like cysteine …: T2 sequence (P43508 81-335) with H201A
N2 animals
  Embryonic lethality of treated N2 animals: failed to do so
[5]
  Protease activity of recombinant protein: abolished the protease activity
[4]
  Germ cell corpses in ced-1(e1735) animals: failed to do so

B3: tCPR-4(N301A): tCPR-4 with mutation N301A changing a non-catalytic residue (protein, UniProt P43508 81-335, looked up, variant N301A)
Cathepsin B-like cysteine …: T2 sequence (P43508 81-335) with N221A
N2 animals
  Embryonic lethality of treated N2 animals: increased embryonic lethality
[5]
  Protease activity of recombinant protein: did not affect tCPR-4 protease activity
[4]
  Germ cell corpses in ced-1(e1735) animals: reduced germ cell corpses

B4: tCPR-4(C109A): tCPR-4 with mutation of the conserved catalytic Cysteine residue (protein, UniProt P43508 81-335, looked up, variant C109A)
Cathepsin B-like cysteine …: T2 sequence (P43508 81-335) with C29A
N2 animals
  Embryonic lethality of treated N2 animals: failed to do so
[5]
  Protease activity of recombinant protein: abolished the protease activity
[4]
  Germ cell corpses in ced-1(e1735) animals: failed to do so
